In PubChem BioAssay AID1963847 (Molecular Pharmacology Branch, DTP, NCI, 2024):

Tested on: 415267-285-R-J2-PDC complex spheroid viability
Assay: Anticancer human tumor 415267-285-R-J2-PDC patient-derived breast carcinoma cell line growth inhibition [POLQ]
Conditions: for IC50: curve of first compound; for viability, T/C: stronger effect = lower value; active = viability on the fitted dose curve at most 10% of control; inactive = the rest
Protocol: Multicellular complex tumor spheroid response to Polymerase (POL) inhibitors (novobiocin, ART-558, RP6685) in combination with a variety of drugs and investigational agents in selected tumor cell lines
The POL inhibitors (novobiocin, ART-558, and RP6685) were evaluated both individually and in combination with standard of care and investigational anticancer small molecules within a complex spheroid model of solid tumors. . Complex spheroids include a stromal component modeled by human endothelial cells (HUVEC) and fibroblasts modeled by human mesenchymal stem cells (MSCs). The concentration ranges selected for each drug and investigational agent were based upon clinically achievable concentrations if the clinical Cmax of the agent was known.
Compounds. The drugs and investigational agents: novobiocin (NSC847541), ART-558 (NSC835418), RP-6685 (NSC848927), peposertib (NSC802822), ceralasertib (NSC780249), elimusertib (NSC800525), camonsertib (NSC841442), AZD-1390 (NSC803789), olaparib (NSC753686), talazoparib (NSC767125), rucaparib (NSC756644), sotorasib (NSC818433), MRTX-1133 (NSC836407), SN-38 (NSC673596), topotecan (NSC609699), epotoside (NSC141540), doxorubicin (NSC123127), gemcitabine (NSC613327), 5-fluorouracil (NSC19893), paclitaxel (NSC125973), vemurafenib (NSC761431), MSA-2 (NSC828583), SN-011 (NSC837082), adavosertib (NSC754352), prexasertib (NSC758257), carboplatin (NSC241240) and oxaliplatin (NSC266046), were obtained from the National Cancer Institute (NCI) Developmental Therapeutics Program Chemical Repository (21). The FDA-approved anticancer drug set is available from the Developmental Therapeutics Program at https://dtp.cancer.gov/organization/dscb/obtaining/. […] The stock solutions were prepared in dimethyl sulfoxide (DMSO, Sigma-Aldrich, St. Louis, MO, cat. D2650), except for the platinum compounds which were prepared in saline (Quality Biological, Gaithersburg, MD, cat. 114-055-101), at 800-fold the tested concentration and stored at -70 degrees C prior to their use. All drugs and investigational agents were tested over a range starting from a high concentration at or near the clinical Cmax and decreasing in half-log increments. If the clinical Cmax for an agent had not been determined, the highest concentration tested was 10 microM, except for SN-38, which was tested at a high concentration of 1 microM.
Cell Culture. All cells were maintained in an incubator at 37 degrees C and 5% CO2 with 95% humidity. The PDC lines were cultured according to standard operating procedures established by the NCI PDMR (https://pdmr.cancer.gov). Table 3 of the manuscript, lists the cell lines along with the number of the three cell types plated to form the mct-spheroids and media for tumor cell growth. After thawing, all PDC lines, except 997537-175-T-J1-PDC and 415267-285-R-J2-PDC, were cultured in Matrigel-coated flasks prepared with a working solution of 1X Ham's F-12 nutrient mix, without supplementation (Thermo Fisher Scientific, cat. 11765054), 100 U/mL penicillin-streptomycin (Thermo Fisher Scientific, cat. 15140122), and 2.5% Matrigel (Corning Inc., Corning, NY, cat. 354248) for the first three passages. The two PDC lines 997537-175-T-J1-PDC and 415267-285-R-J2-PDC were cultured on uncoated flasks. The 857933-349-R-J2-PDC line was cultured in 6C/Colon 1B media containing advanced DMEM/F-12 (Thermo Fisher Scientific, cat. 12634028), 10 mM HEPES (Thermo Fisher Scientific, cat. 15630080), 1X GlutaMAX supplement (Thermo Fisher Scientific, cat. 35050061), 0.1 mg/mL primocin (InvivoGen, San Diego, CA, cat. ant-pm-2), 10% defined fetal bovine serum, heat inactivated (HyClone Laboratories Inc., Logan, UT, cat. SH30070.03HI), 50% L-WRN conditioned media (ATCC, cat. CRL-3276), 1.25 mM N-Acetyl-L-cysteine (Sigma-Aldrich, cat. A9165), 10 mM nicotinamide (Sigma-Aldrich, cat. N0636), 1X B-27 supplement (Thermo Fisher Scientific, cat. 17504044), 1X N-2 supplement (Thermo Fisher Scientific, cat. […]
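Also: spheroids exposed to compounds for one week before readout.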
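For viability, T/C in this document: luminescence used as stand-in measure of viable cells.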

Nc1ccn(C2OC(CO)C(O)C2(F)F)c(=O)n1 (configuration not stated) + Cc1cccc(N(C)C(=O)C2C(O)CCN2c2nc(C)cc(C(F)(F)F)c2C#N)c1
inactive: viability, T/C (second compound 1 µM, first compound 0.0316 µM) 12.5%
< 0.0316 µM: IC50 (second compound 0.0316 µM) | IC50 (second compound 0.1 µM) | IC50 (second compound 0.316 µM) | IC50 (second compound 1 µM) | IC50 (second compound 3.16 µM) | IC50 (second compound 10 µM)
active: viability, T/C (second compound 0.0316 µM, first compound 0.0316 µM) 8.22% | viability, T/C (second compound 0.0316 µM, first compound 0.1 µM) 6.11% | viability, T/C (second compound 0.0316 µM, first compound 0.316 µM) 5.62% | viability, T/C (second compound 0.0316 µM, first compound 1 µM) 4.61% | viability, T/C (second compound 0.0316 µM, first compound 3.16 µM) 5.96% | viability, T/C (second compound 0.0316 µM, first compound 10 µM) 5.35% | viability, T/C (second compound 0.1 µM, first compound 0.0316 µM) 8.77% | viability, T/C (second compound 0.1 µM, first compound 0.1 µM) 5.43% | viability, T/C (second compound 0.1 µM, first compound 0.316 µM) 6.85% | viability, T/C (second compound 0.1 µM, first compound 1 µM) 5.22% | viability, T/C (second compound 0.1 µM, first compound 3.16 µM) 6.13% | viability, T/C (second compound 0.1 µM, first compound 10 µM) 4.79% | viability, T/C (second compound 0.316 µM, first compound 0.0316 µM) 8.5% | viability, T/C (second compound 0.316 µM, first compound 0.1 µM) 6.58% | viability, T/C (second compound 0.316 µM, first compound 0.316 µM) 5.69% | viability, T/C (second compound 0.316 µM, first compound 1 µM) 5.62% | viability, T/C (second compound 0.316 µM, first compound 3.16 µM) 6.58% | viability, T/C (second compound 0.316 µM, first compound 10 µM) 6.07% | viability, T/C (second compound 1 µM, first compound 0.1 µM) 6.12% | viability, T/C (second compound 1 µM, first compound 0.316 µM) 5.2% | viability, T/C (second compound 1 µM, first compound 1 µM) 5.51% | viability, T/C (second compound 1 µM, first compound 3.16 µM) 5.07% | viability, T/C (second compound 1 µM, first compound 10 µM) 5.32% | viability, T/C (second compound 3.16 µM, first compound 0.0316 µM) 7.95% | viability, T/C (second compound 3.16 µM, first compound 0.1 µM) 5.96% | viability, T/C (second compound 3.16 µM, first compound 0.316 µM) 5.8% | viability, T/C (second compound 3.16 µM, first compound 1 µM) 4.93% | viability, T/C (second compound 3.16 µM, first compound 3.16 µM) 5.53% | viability, T/C (second compound 3.16 µM, first compound 10 µM) 5.95% | viability, T/C (second compound 10 µM, first compound 0.0316 µM) 9.14% | viability, T/C (second compound 10 µM, first compound 0.1 µM) 6.37% | viability, T/C (second compound 10 µM, first compound 0.316 µM) 6.58% | viability, T/C (second compound 10 µM, first compound 1 µM) 5.23% | viability, T/C (second compound 10 µM, first compound 3.16 µM) 6.03% | viability, T/C (second compound 10 µM, first compound 10 µM) 5.65%
